Test [1] concerns primary cilium of immune cell (peripheral blood mononuclear cells from an asthmatic patient). Nature of the test: Formation rate of primary cilium in immune cell after culture in steroid-containing medium. To be noted: 10 μM steroid, 37° C., 24 hours; nonadherent cells from asthmatic patient PBMC; FIG. 11. The class given is cell-based, human. As to the method:
Using 10 mL of peripheral blood collected from an asthmatic patient and 15 mL of a human lymphocyte-separation medium (manufactured by GE Healthcare, trade name: Ficoll-Paque PLUS), peripheral blood mononuclear cells were separated from the peripheral blood, according to a density gradient centrifugation method. Some of the separated peripheral blood mononuclear cells were fixed with 4 v/v % PFA-containing PBS solution. The fixed cells were blocked and permeabilized by incubating the cells in a blocking/permeabilizing agent, to give a sample containing uncultured cells.
Some of the separated peripheral blood mononuclear cells were cultured in a steroid-containing medium (RPMI1640 medium containing 10 μM hydrocortisone or 10 μM dexamethasone, 0.1 v/v % DMSO and 10 v/v % FBS) at 37° C. for 24 hours. Then, nonadherent cells suspended in each medium were collected. Immediately after collection, each of the collected cells was fixed with 4 v/v % PFA-containing PBS solution. […]
Next, the total number of immune cells and the number of primary cilia in an immune cell were obtained by using observations of cells contained in each sample. Then, the formation rate of a primary cilium in an immune cell was calculated in accordance with the formula (Ic): [Formation rate of primary cilium in immune cell]=[(Number of primary cilia in immune cell)/(Total number of immune cells)]×100 (Ic). […]

For test [2], the system named is adhesive cell in peripheral blood mononuclear cells collected from an asthmatic patient. As to the kind of experiment: Morphology and adhesive cells of peripheral blood mononuclear cells from an asthmatic patient after culture in steroid-containing medium. The conditions noted are these: 10 μM steroid, 0.1 v/v % DMSO, 10 v/v % FBS RPMI1640, 37° C., 24 hours; asthmatic patient PBMC; FIG. 10. The test is classed as cell-based, human. As to the method: Using 10 mL of peripheral blood collected from an asthmatic patient and 15 mL of a human lymphocyte-separation medium (manufactured by GE Healthcare, trade name: Ficoll-Paque PLUS), peripheral blood mononuclear cells were separated from the peripheral blood, according to a density gradient centrifugation method. Some of the separated peripheral blood mononuclear cells were cultured in a steroid-containing medium (RPMI1640 medium containing 10 μM hydrocortisone or 10 μM dexamethasone, 0.1 v/v % DMSO and 10 v/v % FBS) or a control medium (RPMI1640 medium containing 0.1 v/v % DMSO and 10 v/v % FBS) in a culture vessel at 37° C. for 24 hours. The morphology and state of the obtained cell were observed by an inverted phase contrast microscope (manufactured by Leica Microsystems, trade name: DM IL LED). […]

Each structure is given as a SMILES string.

For `C[C@]12CCC(=O)C=C1CC[C@@H]1[C@@H]2[C@@H](O)C[C@@]2(C)[C@H]1CC[C@]2(O)C(=O)CO` [hydrocortisone], the “formation rate of a primary cilium of the immune cell in the nonadherent cell, versus control medium” value in test [1] is recorded as “significantly lower”. For the same molecule, the “presence of adhesive cell after culture (morphology, phase contrast microscope)” value in test [2] is “the adhesive cell disappears”.

(Values after patent US12306171B2, “Method for detecting indicator of immune-related disease” (MANDOM CORPORATION, priority 2018, dated 2025).)
